In US8952024B2, “Herbicidal pyrimidone derivatives” (E I du Pont de Nemours and Company, priority 2009, dated 2015):

Key:
Type in all cases: in vivo
corn (Zea mays) = assay: Test A pre-/postemergence plant response
Outline: (§1)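 Plants grown from seed in a loam soil and sand mix received test compounds both as a preemergence soil spray and, at the same time, as a postemergence spray at the one- to two-leaf stage. Injury was judged visually against untreated controls roughly ten days later, 0 meaning no effect and 100 complete control.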

[1] = system: barnyardgrass (Echinochloa crus-galli); assay: Test A pre-/postemergence plant response
Outline: as §1

[2] = system: giant foxtail (Setaria faberii); assay: Test A pre-/postemergence plant response
Outline: as §1

[3] = system: morningglory (Ipomoea spp.); assay: Test A pre-/postemergence plant response
Outline: as §1

[4] = system: velvetleaf (Abutilon theophrasti); assay: Test A pre-/postemergence plant response
Outline: as §1

[5] = system: pigweed (Amaranthus retroflexus); assay: Test A pre-/postemergence plant response
Outline: as §1

[6] = system: large crabgrass (Digitaria sanguinalis); assay: Test A pre-/postemergence plant response
Outline: as §1

[7] = system: wheat (Triticum aestivum); assay: Test A pre-/postemergence plant response
Outline: as §1

[8] = system: winter barley (Hordeum vulgare); assay: Test B postemergence plant response; conditions: for Barley plant response rating (0 to 100 scale): 62 g ai/ha, 0 is no effect, 13 to 15 days
Outline: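 Visual ratings from 0 (no effect) to 100 (complete control), made against controls 13–15 days after treatment, kept in a greenhouse. Compounds were applied postemergence to potted plants at the 1- to 4-leaf stage (2–18 cm).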

[9] = system: barnyardgrass (Echinochloa crus-galli); assay: Test B flooded paddy test; conditions: for Plant response rating, Flood, Barnyardgrass: 250 g ai/ha, flooded paddy test, visual rating on 0 to 100 scale (0 no effect, 100 complete control) after 13 to 15 days; for Plant response rating, Barnyardgrass: Flood (flooded paddy test), 13 to 15 days
Outline: (§2)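 Rice, umbrella sedge, ducksalad and barnyardgrass were grown to the 2-leaf stage, flooded to 3 cm, and compound was applied directly to the paddy water, with that depth kept throughout. After 13 to 15 days in the greenhouse, plants were visually rated against controls on a 0 (no effect) to 100 (complete control) scale.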

[10] = system: umbrella sedge (Cyperus difformis); assay: Test B flooded paddy test; conditions: for Plant response rating, Flood, Sedge, Umbrella: 250 g ai/ha, flooded paddy test, visual rating on 0 to 100 scale (0 no effect, 100 complete control) after 13 to 15 days; for Plant response rating, Sedge, Umbrella: Flood (flooded paddy test), 13 to 15 days
Outline: as §2

[11] = system: ducksalad (Heteranthera limosa); assay: Test B flooded paddy test; conditions: for Plant response rating, Flood, Ducksalad: 250 g ai/ha, flooded paddy test, visual rating on 0 to 100 scale (0 no effect, 100 complete control) after 13 to 15 days; for Plant response rating, Ducksalad: Flood (flooded paddy test), 13 to 15 days
Outline: as §2

rice (Oryza sativa) = assay: Test B flooded paddy test; conditions: for Plant response rating, Flood, Rice: 250 g ai/ha, flooded paddy test, visual rating on 0 to 100 scale (0 no effect, 100 complete control) after 13 to 15 days; for Plant response rating, Rice: Flood (flooded paddy test), 13 to 15 days
Outline: as §2

[12] = Postemergence, 125 g ai/ha, visual injury, 0 to 100 scale (0 no effect, 100 complete control), approx. ten days
[13] = Postemergence, 500 g ai/ha, 0 to 100 scale, 0 = no effect, 100 = complete control, approx. ten days
[14] = Preemergence, 125 g ai/ha, 0 to 100 scale, 0 = no effect, 100 = complete control
[15] = Preemergence, 500 g ai/ha, visual injury, 0 to 100 scale (0 no effect, 100 complete control), approx. ten days
[16] = 31 g ai/ha, postemergence, scale 0 to 100, 0 is no effect, 100 is complete control
[17] = postemergence, 100 is complete control
[18] = Postemergence, 125 g ai/ha, visual rating after 13 to 15 days, scale 0 (no effect) to 100 (complete control)
[19] = Postemergence, 250 g ai/ha, scale 0 to 100 (0 no effect, 100 complete control)
[20] = 62 g ai/ha, scale of 0 to 100 where 0 is no effect and 100 is complete control
[21] = 125 g ai/ha, scale 0 to 100, 0 is no effect, 100 is complete control
[22] = Flood, 31 g ai/ha, scale 0 to 100 (0 no effect, 100 complete control)
[23] = Postemergence, 125 g ai/ha, 0 to 100 scale where 0 is no effect and 100 is complete control

`O=C1CCCC(O)=C1C(=O)c1cnc(-c2ccccc2Br)n(-c2ccccc2)c1=O` [Compound 71] was tested, and the “Corn plant response rating” value (corn (Zea mays); [12]) was 0, the “Plant response rating, Corn” value (corn (Zea mays); [13]) was 20 and the “Plant response rating, Corn” value (corn (Zea mays); [14]) was 0. For the same compound, the “Plant response rating, Corn” value (corn (Zea mays); [15]) was 0, the “Barnyardgrass plant response rating” value [1, 12] was 0 and the “Plant response rating, Barnyardgrass” value [1, 13] was 60. The “Plant response rating, Barnyardgrass” value [1, 14] was 0, the “Plant response rating, Barnyardgrass” value [1, 15] was 0 and the “Foxtail, Giant plant response rating” value [2, 12] was 20. For the same compound, the “Plant response rating, Foxtail, Giant” value [2, 13] was 60, the “Plant response rating, Foxtail, Giant” value [2, 14] was 0 and the “Plant response rating, Foxtail, Giant” value [2, 15] was 10. For the same compound, the “Morningglory plant response rating” value [3, 12] was 80, the “Plant response rating, Morningglory” value [3, 13] was 100 and the “Plant response rating, Morningglory” value [3, 14] was 0. For the same compound, the “Plant response rating, Morningglory” value [3, 15] was 0, the “Velvetleaf plant response rating” value [4, 12] was 100 and the “Plant response rating, Velvetleaf” value [4, 13] was 100. For the same compound, the “Plant response rating, Velvetleaf” value [4, 14] was 50, the “Plant response rating, Velvetleaf” value [4, 15] was 70 and the “Pigweed plant response rating” value [5, 12] was 70. The “Plant response rating, Pigweed” value [5, 13] was 100, the “Plant response rating, Pigweed” value [5, 15] was 90 and the “Crabgrass, Large plant response rating” value [6, 12] was 30. The “Plant response rating, Crabgrass, Large” value [6, 13] was 80, the “Plant response rating, Crabgrass, Large” value [6, 14] was 10 and the “Plant response rating, Crabgrass, Large” value [6, 15] was 50. For the same compound, the “Wheat plant response rating” value [7, 12] was 0, the “Plant response rating, Wheat” value [7, 13] was 0 and the “Plant response rating, Wheat” value [7, 14] was 0. For the same compound, the “Plant response rating, Wheat” value [7, 15] was 0, the “Plant response rating, Barley” value [8, 16] was 0 and the “Barley plant response rating (0 to 100 scale)” value [8, 17] was 0. The “Plant response rating, Barley” value [8, 18] was 0, the “Plant response rating, Barley” value [8, 19] was 5 and the “Plant response rating, Flood, Barnyardgrass” value [9] was 0. For the same compound, the “Plant response rating, Barnyardgrass” value [9, 20] was 0, the “Plant response rating, Barnyardgrass” value [9, 21] was 0 and the “Barnyardgrass plant response rating” value [9, 22] was 0. For the same compound, the “Plant response rating, Flood, Sedge, Umbrella” value [10] was 25, the “Plant response rating, Sedge, Umbrella” value [10, 20] was 0 and the “Plant response rating, Sedge, Umbrella” value [10, 21] was 0. For the same compound, the “Sedge, Umbrella plant response rating” value [10, 22] was 0, the “Plant response rating, Flood, Ducksalad” value [11] was 0 and the “Plant response rating, Ducksalad” value [11, 20] was 0. For the same compound, the “Plant response rating, Ducksalad” value [11, 21] was 0, the “Ducksalad plant response rating” value [11, 22] was 0 and the “Plant response rating, Flood, Rice” value (rice (Oryza sativa)) was 0. The “Plant response rating, Rice” value (rice (Oryza sativa); [20]) was 0, the “Plant response rating, Rice” value (rice (Oryza sativa); [21]) was 0 and the “Rice plant response rating” value (rice (Oryza sativa); [22]) was 0.
For `CCCc1ncc(C(=O)C2=C(O)CCCC2=O)c(=O)n1-c1ccccc1C` [Compound 73], the “Plant response rating, Corn” value (corn (Zea mays); [23]) was 30, the “Plant response rating, Corn” value (corn (Zea mays); [13]) was 60 and the “Plant response rating, Corn” value (corn (Zea mays); [14]) was 0. For the same compound, the “Plant response rating, Corn” value (corn (Zea mays); [15]) was 0, the “Plant response rating, Barnyardgrass” value [1, 23] was 70 and the “Plant response rating, Barnyardgrass” value [1, 13] was 90. For the same compound, the “Plant response rating, Barnyardgrass” value [1, 14] was 0, the “Plant response rating, Barnyardgrass” value [1, 15] was 70 and the “Plant response rating, Foxtail, Giant” value [2, 23] was 80. For the same compound, the “Plant response rating, Foxtail, Giant” value [2, 13] was 90, the “Plant response rating, Foxtail, Giant” value [2, 14] was 50 and the “Plant response rating, Foxtail, Giant” value [2, 15] was 70. The “Plant response rating, Morningglory” value [3, 23] was 100, the “Plant response rating, Morningglory” value [3, 13] was 100 and the “Plant response rating, Morningglory” value [3, 14] was 10. The “Plant response rating, Morningglory” value [3, 15] was 80, the “Plant response rating, Velvetleaf” value [4, 23] was 100 and the “Plant response rating, Velvetleaf” value [4, 13] was 100. The “Plant response rating, Velvetleaf” value [4, 14] was 80, the “Plant response rating, Velvetleaf” value [4, 15] was 100 and the “Plant response rating, Pigweed” value [5, 23] was 100. The “Plant response rating, Pigweed” value [5, 13] was 100, the “Plant response rating, Pigweed” value [5, 14] was 100 and the “Plant response rating, Pigweed” value [5, 15] was 100. For the same compound, the “Plant response rating, Crabgrass, Large” value [6, 23] was 90, the “Plant response rating, Crabgrass, Large” value [6, 13] was 90 and the “Plant response rating, Crabgrass, Large” value [6, 14] was 70. For the same compound, the “Plant response rating, Crabgrass, Large” value [6, 15] was 100, the “Plant response rating, Wheat” value [7, 23] was 10 and the “Plant response rating, Wheat” value [7, 13] was 50. For the same compound, the “Plant response rating, Wheat” value [7, 14] was 10, the “Plant response rating, Wheat” value [7, 15] was 30 and the “Plant response rating, Barley” value [8, 16] was 0. The “Barley plant response rating (0 to 100 scale)” value [8, 17] was 0, the “Plant response rating, Barley” value [8, 18] was 0 and the “Plant response rating, Barley” value [8, 19] was 10. The “Plant response rating, Flood, Barnyardgrass” value [9] was 0, the “Plant response rating, Barnyardgrass” value [9, 20] was 0 and the “Plant response rating, Flood, Sedge, Umbrella” value [10] was 0. For the same compound, the “Plant response rating, Sedge, Umbrella” value [10, 20] was 0, the “Plant response rating, Flood, Ducksalad” value [11] was 0 and the “Plant response rating, Ducksalad” value [11, 20] was 0. For the same compound, the “Plant response rating, Flood, Rice” value (rice (Oryza sativa)) was 0 and the “Plant response rating, Rice” value (rice (Oryza sativa); [20]) was 0.
